Where a name gives a salt, the structure may show the parent alone.
Tests used:
EP1 receptors [1] = target: T1, EP1 receptors (Homo sapiens, UniProt P34995); experiment: Binding assay for the human prostanoid EP1 receptor (competition with [3H]-PGE2); design: expressed in transfected cells; host or cells: CHO-K1 cells, membrane fraction; conditions: [3H]-PGE2 competition; averages of a number of experiments; read-out: pIC50 value, binding assay for the human prostanoid EP1 receptor (converted)
T1 sequence (P34995 1-402): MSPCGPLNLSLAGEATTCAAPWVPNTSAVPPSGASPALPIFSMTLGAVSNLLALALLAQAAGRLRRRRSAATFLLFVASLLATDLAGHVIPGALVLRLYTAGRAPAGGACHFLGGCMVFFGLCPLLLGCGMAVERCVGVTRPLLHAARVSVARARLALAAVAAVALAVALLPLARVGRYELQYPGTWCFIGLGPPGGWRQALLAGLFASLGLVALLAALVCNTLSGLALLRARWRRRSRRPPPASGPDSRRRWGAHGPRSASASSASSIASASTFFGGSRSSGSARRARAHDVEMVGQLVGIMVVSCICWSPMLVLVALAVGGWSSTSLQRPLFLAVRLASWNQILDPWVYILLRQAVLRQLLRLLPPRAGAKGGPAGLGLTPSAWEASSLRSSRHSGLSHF
Summary of the method: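 Membranes from CHO-K1 cells stably expressing human EP1 incubated with compounds and [3H]-PGE2 (3 nM final) for 30 min at 30° C in MES buffer with EDTA and MgCl2, pH 6. Bound radioactivity measured after filtration; IC50 from nonlinear fit of specific binding inhibition.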

EP1 receptors [2] = target: T1, EP1 receptors; experiment: human EP1 calcium mobilisation assay (CHO-K1 cells, FLIPR, PGE2); assay type: cell-based; design: expressed in transfected cells; host or cells: CHO-K1 cells, pCIN vector; conditions: free bases or sodium salts; averages of a number of experiments; read-out: functional pKi value, human EP1 calcium mobilisation assay (converted)
Protocol: Briefly, the antagonist properties of compounds are assessed by their ability to inhibit the mobilisation of intracellular calcium ([Ca^2+]i) in response to activation of EP1 or EP3 receptors by the natural agonist hormone prostaglandin E2 (PGE2). Increasing concentrations of antagonist reduce the amount of calcium that a given concentration of PGE2 can mobilise. The net effect is to displace the PGE2 concentration-effect curve to higher concentrations of PGE2. The amount of calcium produced is assessed using a calcium-sensitive fluorescent dye such as Fluo-4, AM and a suitable instrument such as a Fluorimetric Imaging Plate Reader (FLIPR). Increasing amounts of [Ca^2+]i produced by receptor activation increase the amount of fluorescence produced by the dye and give rise to an increasing signal. The signal may be detected using the FLIPR instrument and the data generated may be analysed with suitable curve-fitting software.
The human EP1 or EP3 calcium mobilisation assay (hereafter referred to as ‘the calcium assay’) utilises Chinese hamster ovary-K1 (CHO-K1) cells into which a stable (pCIN; BioTechniques 20 (1996): 102-110) vector containing either EP1 or EP3 cDNA has previously been transfected. Cells are cultured in suitable flasks containing culture medium such as DMEM:F-12 supplemented with 10% v/v foetal calf serum, 2 mM L-glutamine, 0.25 mg/ml geneticin, 100 μM flurbiprofen and 10 µg/ml puromycin. For assay, cells are harvested using a proprietary reagent that dislodges cells such as Versene. Cells are re-suspended in a suitable quantity of fresh culture media for introduction into a 384-well plate. Following incubation for 24 hours at 37° C. the culture media is replaced with a medium containing Fluo-4 and the detergent pluronic acid, and a further incubation takes place. Concentrations of compounds are then added to the plate in order to construct concentration-effect curves. This may be performed on the FLIPR in order to assess the agonist properties of the compounds. Concentrations of PGE2 are then added to the plate in order to assess the antagonist properties of the compounds. The data so generated may be analysed by means of a computerised curve-fitting routine. The concentration of compound that elicits a half-maximal inhibition of the calcium mobilisation induced by PGE2 (pIC50) may then be estimated.

IC50 (EP1 receptors [1]) [nM] | Ki (EP1 receptors [2]) [nM] | Structure (SMILES)
≤ 1000 | > 1000 | O=C(Nc1csc(Cc2cc(Cl)ccc2OCc2ccccc2)n1)c1ccc(CO)cc1 [Example 112, N-[2-({5-chloro-2-[(phenylmethyl)oxy]phenyl}methyl)-1,3-thiazol-4-yl]-4-(hydroxymethyl)benzamide]
≤ 31.6 | < 1000 | CC(C)COc1ccc(Cl)cc1Cc1nc(-c2nc3ccc(CCN(C)C)cc3[nH]2)cs1 [Example 116, (2-{2-[2-({5-Chloro-2-[(2-methylpropyl)oxy]-phenyl}methyl)-1,3-thiazol-4-yl]-1H-benzimidazol-5-yl}ethyl)dimethylamine]
≤ 31.6 | < 1000 | CC(C)COc1ccc(Cl)cc1Cc1nc(-c2nc3ccc(CCN4CCN(C)CC4)cc3[nH]2)cs1 [Example 117, 2-[2-({5-Chloro-2-[(2-methylpropyl)oxy]phenyl}-methyl)-1,3-thiazol-4-yl]-5-(2-(4-methyl-1-piperazinyl)ethyl]-1H-benzimidazole]
≤ 1000 | > 1000 | O=C(Nc1ccc(CN2CCOCC2)cc1)c1csc(Cc2cc(Cl)ccc2OCc2ccccc2)n1 [Example 120, 2-({5-Chloro-2-[(phenylmethyl)oxy]phenyl}-methyl)-N-[4-(4-morpholinylmethyl)phenyl]-1,3-thiazole-4-carboxamidehydrochloride]
≤ 31.6 | < 1000 | CC(C)COc1ccc(Cl)cc1Cc1nc(-c2nc3ccc(CN(C)C)cc3[nH]2)cs1 [Example 124, ({2-[2-({5-Chloro-2-[(2-methylpropyl)oxy]phenyl}-methyl)-1,3-thiazol-4-yl]-1H-benzimidazol-5-yl}methyl)dimethylaminehydrochloride]
≤ 1000 | < 1000 | CC(C)C(=O)Nc1csc(Cc2cc(Cl)ccc2OCc2ccccc2)n1 [Example 129, N-[2-({5-Chloro-2-[(phenylmethyl)oxy]phenyl}methyl)-1,3-thiazol-4-yl]-2-methylpropanamide]
≤ 1000 | < 1000 | O=C(Cc1ccccc1)Nc1csc(Cc2cc(Cl)ccc2OCc2ccccc2)n1 [Example 130, N-[2-({5-Chloro-2-[(phenylmethyl)oxy]phenyl}methyl)-1,3-thiazol-4-yl]-2-phenylacetamide]
≤ 1000 | < 1000 | Clc1ccc(OCc2ccccc2)c(Cc2nc(-c3nc4ccccc4[nH]3)cs2)c1 [Example 131, 2-[2-({5-Chloro-2-[(phenylmethyl)oxy]phenyl}methyl)-1,3-thiazol-4-yl]-1H-benzimidazole]
≤ 31.6 | < 1000 | CC(C)COc1ccc(Cl)cc1Cc1nc(-c2nc3ncccc3[nH]2)cs1 [Example 132, 2-[2-({5-Chloro-2-[(2-methyl-propyl)oxy]-phenyl}methyl)-1,3-thiazol-4-yl]-1H-imidazo[4,5-b]pyridine]
≤ 1000 | < 1000 | Clc1ccc(OCc2ccccc2)c(Cc2nc(-c3nc4ncccc4[nH]3)cs2)c1 [Example 133, 2-[2-({5-Chloro-2-[(phenylmethyl)oxy]phenyl}methyl)-1,3-thiazol-4-yl]-1H-imidazo[4,5-b]pyridine]

Further lines, the compound ahead of its results:

Structure (SMILES) | IC50 (EP1 receptors [1]) [nM] | Ki (EP1 receptors [2]) [nM]
CC(C)COc1ccc(Cl)cc1Cc1nc(NC(=O)OC(C)(C)C)cs1 [Example 111, 1,1-Dimethylethyl [2-({5-chloro-2-[(2-methylpropyl)oxy]phenyl}methyl)-1,3-thiazol-4-yl]carbamate] | ≤ 1000 | < 1000
O=C(Nc1csc(Cc2cc(Cl)ccc2OCc2ccccc2)n1)c1ccc(CN2CCCCC2)cc1 [Example 113, N-[2-({5-Chloro-2-[(phenylmethyl)oxy]phenyl}methyl)-1,3-thiazol-4-yl]-4-(1-piperidinylmethyl)benzamide] | ≤ 1000 | < 1000
CN1CCN(Cc2ccc(C(=O)Nc3csc(Cc4cc(Cl)ccc4OCc4ccccc4)n3)cc2)CC1 [Example 114, N-[2-({5-chloro-2-[(phenylmethyl)oxy]-phenyl}methyl)-1,3-thiazol-4-yl]-4-[(4-methyl-1-piperazinyl)methyl]-benzamide] | ≤ 1000 | < 1000
CN1CCN(CCc2ccc3nc(-c4csc(Cc5cc(Cl)ccc5OCc5ccccc5)n4)[nH]c3c2)CC1 [Example 115, 2-[2-({5-chloro-2-[(phenylmethyl)oxy]-phenyl}methyl)-1,3-thiazol-4-yl]-5-[2-(4-methyl-1-piperazinyl)ethyl]-1H-benzimidazole] | ≤ 31.6 | < 1000
CN(C)Cc1ccc(NC(=O)c2csc(Cc3cc(Cl)ccc3OCc3ccccc3)n2)cc1 [Example 118, 2-({5-Chloro-2-[(phenylmethyl)oxy]phenyl}methyl)-N-{4-[(dimethylamino)methyl]phenyl}-1,3-thiazole-4-carboxamide hydrochloride] | ≤ 1000 | > 1000
O=C(Nc1ccc(CN2CCCC2)cc1)c1csc(Cc2cc(Cl)ccc2OCc2ccccc2)n1 [Example 119, 2-({5-Chloro-2-[(phenylmethyl)oxy]phenyl}-methyl)-N-[4-(1-pyrrolidinylmethyl)phenyl]-1,3-thiazole-4-carboxamidehydrochloride] | ≤ 1000 | > 1000
O=C(Nc1ccc(CN2CCCCC2)cc1)c1csc(Cc2cc(Cl)ccc2OCc2ccccc2)n1 [Example 121, 2-({5-Chloro-2-[(phenylmethyl)oxy]phenyl}-methyl)-N-[4-(1-piperidinylmethyl)phenyl]-1,3-thiazole-4-carboxamidehydrochloride] | ≤ 1000 | > 1000
CC(C)COc1ccc(Cl)cc1Cc1nc(-c2nc3ccc(CN4CCOCC4)cc3[nH]2)cs1 [Example 125, 2-[2-({5-Chloro-2-[(2-methylpropyl)oxy]phenyl}-methyl)-1,3-thiazol-4-yl]-5-(4-morpholinylmethyl)-1H-benzimidazolehydrochloride] | ≤ 31.6 | < 1000
CNCc1ccc2nc(-c3csc(Cc4cc(Cl)ccc4OCC(C)C)n3)[nH]c2c1 [Example 126, ({2-[2-({5-Chloro-2-[(2-methylpropyl)oxy]phenyl}-methyl)-1,3-thiazol-4-yl]-1H-benzimidazol-5-yl}methyl)methylaminehydrochloride] | ≤ 31.6 | < 1000
CC(=O)Nc1csc(Cc2cc(Cl)ccc2OCc2ccccc2)n1 [Example 127, N-[2-({5-Chloro-2-[(phenylmethyl)oxy]phenyl}methyl)-1,3-thiazol-4-yl]acetamide] | ≤ 1000 | > 1000
CCC(=O)Nc1csc(Cc2cc(Cl)ccc2OCc2ccccc2)n1 [Example 128] | ≤ 1000 | > 1000
Clc1ccc(OCc2ccccc2)c(Cc2nc(-c3nc4ncc(Br)cc4[nH]3)cs2)c1 [Example 134, 6-Bromo-2-[2-({5-chloro-2-[(phenylmethyl)oxy]phenyl}methyl)-1,3-thiazol-4-yl]-1H-imidazo[4,5-b]pyridine] | ≤ 1000 | < 1000
CC(C)COc1ccc(Cl)cc1Cc1nc(-c2nc3cnccc3[nH]2)cs1 [Example 135, 2-[2-({5-Chloro-2-[(2-methyl-propyl)oxy]-phenyl}methyl)-1,3-thiazol-4-yl]-1H-imidazo[4,5-c]pyridinehydrochloride] | ≤ 31.6 | ≤ 31.6
CC(C)COc1ccc(Cl)cc1Cc1nc(-c2nc3nccnc3[nH]2)cs1 [Example 136, 2-[2-({5-Chloro-2-[(2-methyl-propyl)oxy]-phenyl}methyl)-1,3-thiazol-4-yl]-1H-imidazo[4,5-b]pyrazinehydrochloride] | ≤ 31.6 | ≤ 31.6
